Laboratory results published in US20170190671A1, “BIS(ARYL)CATECHOL DERIVATIVES AS HERBICIDES” (E I DU PONT DE NEMOURS AND COMPANY, priority 2014, published 2017).

How the values were obtained:
[1] = system: Italian ryegrass (Lolium multiflorum); experiment: Test C preemergence; type: in vivo; conditions: Lolium multiflorum, pre-emergence, 336 h, preemergence, scale 0 to 100, read-out: Plant response rating, Ryegrass, Italian
In short: (§1)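 Treatment is preemergence to seeds in a loam and sand soil, or postemergence to plants 2 to 18 cm high in a peat moss-based medium. The compound is delivered in a non-phytotoxic solvent mixture including surfactant. Effects are judged by eye 13 to 15 days later on a 0 to 100 scale.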

[2] = system: barnyardgrass (Echinochloa crus-galli); experiment: Test C preemergence; type: in vivo; conditions: Echinochloa crus-galli, pre-emergence, preemergence, scale 0 to 100, read-out: Plant response rating, Barnyardgrass
In short: as §1

[3] = system: blackgrass (Alopecurus myosuroides); experiment: Test C preemergence; type: in vivo; conditions: Alopecurus myosuroides, pre-emergence, 336 h, preemergence, scale 0 to 100, read-out: Plant response rating, Blackgrass
In short: as §1

corn (Zea mays) [4] = experiment: Test C preemergence; type: in vivo; conditions: Zea mays, pre-emergence, 336 h, preemergence, scale 0 to 100
In short: as §1

[5] = system: giant foxtail (Setaria faberii); experiment: Test C preemergence; type: in vivo; conditions: Setaria faberi, pre-emergence, 336 h, preemergence, scale 0 to 100, read-out: Plant response rating, Foxtail, Giant
In short: as §1

[6] = system: johnsongrass (Sorghum halepense); experiment: Test C preemergence; type: in vivo; conditions: Sorghum halepense, pre-emergence, 336 h, preemergence, scale 0 to 100, read-out: Plant response rating, Johnsongrass
In short: as §1

[7] = system: lambsquarters (Chenopodium album); experiment: Test C preemergence; type: in vivo; conditions: Chenopodium album, pre-emergence, 336 h, preemergence, scale 0 to 100, read-out: Plant response rating, Lambsquarters
In short: as §1

[8] = system: large (Lg) crabgrass (Digitaria sanguinalis); experiment: Test C preemergence; type: in vivo; conditions: Digitaria sanguinalis, pre-emergence, 336 h, preemergence, scale 0 to 100, read-out: Plant response rating, Crabgrass, Large
In short: as §1

[9] = system: morningglory (Ipomoea coccinea); experiment: Test C preemergence; type: in vivo; conditions: Ipomoea, pre-emergence, 336 h, preemergence, scale 0 to 100, read-out: Plant response rating, Morningglory
In short: as §1

[10] = system: oilseed rape (Brassica napus); experiment: Test C preemergence; type: in vivo; conditions: Brassica napus, pre-emergence, preemergence, scale 0 to 100, read-out: Plant response rating, Oilseed Rape
In short: as §1

[11] = system: pigweed (Amaranthus retroflexus); experiment: Test C preemergence; type: in vivo; conditions: Amaranthus retroflexus, pre-emergence, 336 h, preemergence, scale 0 to 100, read-out: Plant response rating, Pigweed
In short: as §1

soybean (Glycine max) [12] = experiment: Test C preemergence; type: in vivo; conditions: Glycine max, pre-emergence, preemergence, scale 0 to 100, read-out: Plant response rating, Soybean
In short: as §1

[13] = system: velvetleaf (Abutilon theophrasti); experiment: Test C preemergence; type: in vivo; conditions: Abutilon theophrasti, pre-emergence, preemergence, scale 0 to 100, read-out: Plant response rating, Velvetleaf
In short: as §1

[14] = system: waterhemp (common waterhemp, Amaranthus rudis); experiment: Test C preemergence; type: in vivo; conditions: Amaranthus tuberculatus, pre-emergence, preemergence, scale 0 to 100, read-out: Plant response rating, Waterhemp
In short: as §1

[15] = system: winter wheat (Triticum aestivum); experiment: Test C preemergence; type: in vivo; conditions: Triticum aestivum, pre-emergence, 336 h, preemergence, scale 0 to 100, read-out: Plant response rating, Wheat
In short: as §1

[16] = system: yellow nutsedge (Cyperus esculentus); experiment: Test C preemergence; type: in vivo; conditions: Cyperus, pre-emergence, 336 h, preemergence, scale 0 to 100, read-out: Plant response rating, Nutsedge, Yellow
In short: as §1

corn (Zea mays) [17] = experiment: Test C postemergence; type: in vivo; conditions: Zea mays, post-emergence, 336 h, Postemergence, scale 0 to 100
In short: as §1

[18] = system: galium (catchweed bedstraw, Galium aparine); experiment: Test C postemergence; type: in vivo; conditions: Galium, post-emergence, 336 h, Postemergence, scale 0 to 100, read-out: Plant response rating, Galium
In short: as §1

[19] = system: lambsquarters (Chenopodium album); experiment: Test C postemergence; type: in vivo; conditions: Chenopodium album, post-emergence, 336 h, Postemergence, scale 0 to 100, read-out: Plant response rating, Lambsquarters
In short: as §1

[20] = system: ragweed (common ragweed, Ambrosia elatior); experiment: Test C postemergence; type: in vivo; conditions: Ambrosia artemisiifolia, post-emergence, 336 h, Postemergence, scale 0 to 100, read-out: Plant response rating, Ragweed
In short: as §1

soybean (Glycine max) [21] = experiment: Test C postemergence; type: in vivo; conditions: Glycine max, post-emergence, Postemergence, scale 0 to 100, read-out: Plant response rating, Soybean
In short: as §1

[22] = system: waterhemp (common waterhemp, Amaranthus rudis); experiment: Test C postemergence; type: in vivo; conditions: Amaranthus tuberculatus, post-emergence, Postemergence, scale 0 to 100, read-out: Plant response rating, Waterhemp
In short: as §1

SMILES: Fc1cnc(Oc2c(F)cccc2Oc2ncc(Cl)cn2)nc1 [Compound 23]
- pest or weed control at 31 g/ha ([1]; 31 g ai/ha): 5%
- pest or weed control at 62 g/ha ([1]; 62 g ai/ha): 75%
- pest or weed control at 125 g/ha ([1]; 125 g ai/ha): 85%
- pest or weed control at 250 g/ha ([1]; 250 g ai/ha): 90%
- pest or weed control at 31 g/ha ([2]; 31 g ai/ha): 75%
- pest or weed control at 62 g/ha ([2]; 62 g ai/ha): 100%
- pest or weed control at 125 g/ha ([2]; 125 g ai/ha): 100%
- pest or weed control at 250 g/ha ([2]; 250 g ai/ha): 100%
- pest or weed control at 31 g/ha ([3]; 31 g ai/ha): 65%
- pest or weed control at 62 g/ha ([3]; 62 g ai/ha): 85%
- pest or weed control at 125 g/ha ([3]; 125 g ai/ha): 95%
- Corn plant response rating (crop injury, 0 = no effect, 100 = complete kill) at 31 g/ha (corn (Zea mays) [4]; 31 g ai/ha): 5%
- Corn plant response rating (crop injury, 0 = no effect, 100 = complete kill) at 62 g/ha (corn (Zea mays) [4]; 62 g ai/ha): 35%
- Corn plant response rating (crop injury, 0 = no effect, 100 = complete kill) at 125 g/ha (corn (Zea mays) [4]; 125 g ai/ha): 70%
- pest or weed control at 31 g/ha ([5]; 31 g ai/ha): 95%
- pest or weed control at 62 g/ha ([5]; 62 g ai/ha): 98%
- pest or weed control at 125 g/ha ([5]; 125 g ai/ha): 100%
- pest or weed control at 31 g/ha ([6]; 31 g ai/ha): 40%
- pest or weed control at 62 g/ha ([6]; 62 g ai/ha): 50%
- pest or weed control at 125 g/ha ([6]; 125 g ai/ha): 90%
- pest or weed control at 31 g/ha ([7]; 31 g ai/ha): 100%
- pest or weed control at 62 g/ha ([7]; 62 g ai/ha): 100%
- pest or weed control at 125 g/ha ([7]; 125 g ai/ha): 100%
- pest or weed control at 31 g/ha ([8]; 31 g ai/ha): 100%
- pest or weed control at 62 g/ha ([8]; 62 g ai/ha): 100%
- pest or weed control at 125 g/ha ([8]; 125 g ai/ha): 100%
- pest or weed control at 31 g/ha ([9]; 31 g ai/ha): 45%
- pest or weed control at 62 g/ha ([9]; 62 g ai/ha): 85%
- pest or weed control at 125 g/ha ([9]; 125 g ai/ha): 98%
- plant injury at 31 g/ha ([10]; 31 g ai/ha): 100%
- plant injury at 62 g/ha ([10]; 62 g ai/ha): 100%
- plant injury at 125 g/ha ([10]; 125 g ai/ha): 100%
- plant injury at 250 g/ha ([10]; 250 g ai/ha): 100%
- pest or weed control at 31 g/ha ([11]; 31 g ai/ha): 100%
- pest or weed control at 62 g/ha ([11]; 62 g ai/ha): 100%
- pest or weed control at 125 g/ha ([11]; 125 g ai/ha): 100%
- plant injury at 31 g/ha (soybean (Glycine max) [12]; 31 g ai/ha): 60%
- plant injury at 62 g/ha (soybean (Glycine max) [12]; 62 g ai/ha): 80%
- plant injury at 125 g/ha (soybean (Glycine max) [12]; 125 g ai/ha): 90%
- plant injury at 250 g/ha (soybean (Glycine max) [12]; 250 g ai/ha): 95%
- pest or weed control at 31 g/ha ([13]; 31 g ai/ha): 100%
- pest or weed control at 62 g/ha ([13]; 62 g ai/ha): 100%
- pest or weed control at 125 g/ha ([13]; 125 g ai/ha): 100%
- pest or weed control at 250 g/ha ([13]; 250 g ai/ha): 100%
- pest or weed control at 31 g/ha ([14]; 31 g ai/ha): 100%
- pest or weed control at 62 g/ha ([14]; 62 g ai/ha): 100%
- pest or weed control at 125 g/ha ([14]; 125 g ai/ha): 100%
- pest or weed control at 250 g/ha ([14]; 250 g ai/ha): 100%
- plant injury at 31 g/ha ([15]; 31 g ai/ha): 5%
- plant injury at 62 g/ha ([15]; 62 g ai/ha): 40%
- plant injury at 125 g/ha ([15]; 125 g ai/ha): 50%
- plant injury at 250 g/ha ([15]; 250 g ai/ha): 90%
- pest or weed control at 31 g/ha ([16]; 31 g ai/ha): 0%
- pest or weed control at 62 g/ha ([16]; 62 g ai/ha): 10%
- pest or weed control at 125 g/ha ([16]; 125 g ai/ha): 60%
- Corn plant response rating (crop injury, 0 = no effect, 100 = complete kill) at 31 g/ha (corn (Zea mays) [17]; 31 g ai/ha): 5%
- Corn plant response rating (crop injury, 0 = no effect, 100 = complete kill) at 62 g/ha (corn (Zea mays) [17]; 62 g ai/ha): 5%
- Corn plant response rating (crop injury, 0 = no effect, 100 = complete kill) at 125 g/ha (corn (Zea mays) [17]; 125 g ai/ha): 10%
- Corn plant response rating (crop injury, 0 = no effect, 100 = complete kill) at 250 g/ha (corn (Zea mays) [17]; 250 g ai/ha): 10%
- pest or weed control at 31 g/ha ([18]; 31 g ai/ha): 70%
- pest or weed control at 62 g/ha ([18]; 62 g ai/ha): 90%
- pest or weed control at 125 g/ha ([18]; 125 g ai/ha): 95%
- pest or weed control at 250 g/ha ([18]; 250 g ai/ha): 95%
- pest or weed control at 31 g/ha ([19]; 31 g ai/ha): 70%
- pest or weed control at 62 g/ha ([19]; 62 g ai/ha): 80%
- pest or weed control at 125 g/ha ([19]; 125 g ai/ha): 90%
- pest or weed control at 250 g/ha ([19]; 250 g ai/ha): 95%
- pest or weed control at 31 g/ha ([20]; 31 g ai/ha): 60%
- pest or weed control at 62 g/ha ([20]; 62 g ai/ha): 70%
- pest or weed control at 125 g/ha ([20]; 125 g ai/ha): 75%
- pest or weed control at 250 g/ha ([20]; 250 g ai/ha): 100%
- plant injury at 31 g/ha (soybean (Glycine max) [21]; 31 g ai/ha): 70%
- plant injury at 62 g/ha (soybean (Glycine max) [21]; 62 g ai/ha): 65%
- plant injury at 125 g/ha (soybean (Glycine max) [21]; 125 g ai/ha): 90%
- plant injury at 250 g/ha (soybean (Glycine max) [21]; 250 g ai/ha): 95%
- pest or weed control at 31 g/ha ([22]; 31 g ai/ha): 65%
- pest or weed control at 62 g/ha ([22]; 62 g ai/ha): 75%
- pest or weed control at 125 g/ha ([22]; 125 g ai/ha): 90%
- pest or weed control at 250 g/ha ([22]; 250 g ai/ha): 98%
- melting point: 141 to 145 °C
